In this test the test system is Glo-Response ARE-luc2P HEK293 cell line. In words: ARE luciferase reporter cell-based assay.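 Note: luciferase signal tracks Nrf2 activation of the ARE once compounds disrupt KEAP1-Nrf2 binding, read with One-Glo reagent, DMSO serving as low control.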 Conditions: Homo sapiens, HEK293, 24 h, average of results obtained. On the technique in general: In a reporter assay the amount or activity of a reporter protein is the signal.

What is called EC50 is the concentration at which the effect is half-maximal. A higher EC50 goes with a need for much substance. `Cc1ccc([C@H](CC(=O)O)c2ccn3c(C(F)(F)F)nnc3c2C)cc1CN1C[C@H]2CCCCN2c2ncc(F)cc2S1(=O)=O` (relative stereo) [Example 310, (*S)-3-(3-(((*R)-3-fluoro-5,5-dioxido-7,7a,8,9,10,11-hexahydro-6H-dipyrido[2,1-d:2′,3′-f][1,2,5]thiadiazepin-6-yl)methyl)-4-methylphenyl)-3-(8-methyl-3-(trifluoromethyl)-[1,2,4]triazolo[4,3-a]pyridin-7-yl)propanoic Acid]: the EC50 was 0.003 µM.
For `Cc1cnc2c(c1)S(=O)(=O)N(Cc1cc(C(c3ccn4c(C(F)(F)F)nnc4c3C)C(C)(C)C(=O)O)cnc1C)CC1(CC1)O2` (racemic) [Example 572], it took 0.392 µM to reach a half-maximal effect (EC50).
Then `CCn1nnc2c(C)c(C(CC(=O)O)c3ccc(C)c(CN4C[C@@H]5CCCCN5c5ncccc5S4(=O)=O)c3)ccc21` (mixture of isomers) [Example 141, (R/S)-3-(3-(((*S)-5,5-Dioxido-7,7a,8,9,10,11-hexahydro-6H-dipyrido[2,1-d:2′,3′-f][1,2,5]thiadiazepin-6-yl)methyl)-4-methylphenyl)-3-(1-ethyl-4-methyl-1H-benzo[d][1,2,3]triazol-5-yl)propanoic Acid], with 0.0039 µM.
`CCCCNc1ccc2c(n1)OC1(CC1)CN(Cc1cc([C@H](CC(=O)O)c3ccn4c(C(F)(F)F)nnc4c3C)ccc1C)S2(=O)=O` (single isomer, unassigned) [Example 113, (*S)-3-(3-((7′-(Butylamino)-1′,1′-dioxidospiro[cyclopropane-1,4′-pyrido[2,3-b][1,4,5]oxathiazepin]-2′(3′H)-yl)methyl)-4-methylphenyl)-3-(8-methyl-3-(trifluoromethyl)-[1,2,4[triazolo[4,3-a]pyridine-7-yl)propanoic Acid]: a half-maximal effect (EC50) was put at 0.49 µM.
Then `Cc1ccc(C(c2ccn3c(C(F)F)nnc3c2C)C(C)(C)C(=O)O)cc1CN1CC2(CC2)Oc2ncccc2S1(=O)=O` (racemic) [Example 566, (R/S)-3-(3-(Difluoromethyl)-8-methyl-[1,2,4]triazolo[4,3-a]pyridin-7-yl)-3-(3-((1′,1′-dioxidospiro[cyclopropane-1,4′-pyrido[2,3-b][1,4,5]oxathiazepin]-2′(3′H)-yl)methyl)-4-methylphenyl)-2,2-dimethylpropanoic Acid], with 0.00681 µM; and `Cc1cc2cc([C@@H](c3ccc(C)c(CN4CC5(CC5)Oc5nc(OCCN6CCCC6)c(C)cc5S4(=O)=O)c3)C(C)(C)C(=O)O)n(C)c2nn1` (single isomer, unassigned) [Example 352, (*S)-3-(3,7-Dimethyl-7H-pyrrolo[2,3-c]pyridazine-6-yl)-2,2-dimethyl-3-(4-methyl-3-((8′-methyl-1′,1′-dioxido-7′-(2-(pyrrolidin-1-yl)-ethoxy)spiro[cyclopropane-1,4′-pyrido[2,3-b][1,4,5]oxathiazepin]-2′,(3′H)-yl)methyl)phenyl)propanoic Acid], with 0.0437 µM.
With `Cc1ccc([C@H](c2ccc3c(nnn3CC3CC3)c2C)C(C)(C)C(=O)O)cc1CN1CC2(CCOCC2)Oc2ncccc2S1(=O)=O` (single isomer, unassigned) [Example 429, (R*)-3-(1-(cyclopropylmethyl)-4-methyl-1H-benzo[d][1,2,3]triazol-5-yl)-3-(3-((1′,1′-dioxido-2,3,5,6-tetrahydrospiro[pyran-4,4′-pyrido[2,3-b][1,4,5]oxathiazepin]-2′(3′H)-yl)methyl)-4-methylphenyl)-2,2-dimethylpropanoic Acid], a half-maximal response (EC50) required 17.8 µM.
Then `Cc1ccc([C@@H](c2ccn3c(C(F)(F)F)nnc3c2C)C(C)C(=O)O)nc1CN1C[C@@H]2CCCCN2c2ncc(F)cc2S1(=O)=O` (relative stereo) [Example 507, (3*R)-3-(6-(((*S)-3-Fluoro-5,5-dioxido-7,7a,8,9,10,11-hexahydro-6H-dipyrido[2,1-d:2′,3′-f][1,2,5]thiadiazepin-6-yl)methyl)-5-methylpyridin-2-yl)-2-methyl-3-(8-methyl-3-(trifluoromethyl)-[1,2,4]triazolo[4,3-a]pyridin-7-yl)propanoic Acid], with 0.00073 µM; and `Cc1cnc2c(c1)S(=O)(=O)N(Cc1cc([C@@H](c3ccc4c(nnn4C4CC4)c3C)C(C)(C)C(=O)O)ccc1C)CC1(CNC1)O2` (single isomer, unassigned) [Example 646, (*S)-3-(1-Cyclopropyl-4-methyl-1H-benzo[d][1,2,3]triazol-5-yl)-2,2-dimethyl-3-(4-methyl-3-((8′-methyl-1′,1′-dioxidospiro[azetidine-3,4′-pyrido[2,3-b][1,4,5]oxathiazepin]-2′(3′H)-yl)methyl)phenyl)propanoic Acid], with 0.0667 µM; and `Cc1ccc([C@H](CC(=O)O)c2ccn3c(C(F)(F)F)nnc3c2C)cc1CN1C[C@@H]2CCCN2c2ncc(C#N)cc2S1(=O)=O` (relative stereo) [Example 206, (*S)-3-(3-(((S)-3-Cyano-5,5-dioxido-7a,8,9,10-tetrahydropyrido[2,3-f]pyrrolo[2,1-d][1,2,5]thiadiazepin-6(7H)-yl)methyl)-4-methylphenyl)-3-(8-methyl-3-(trifluoromethyl)-[1,2,4]triazolo[4,3-a]pyridin-7-yl)propanoic Acid], with 0.014 µM.
The result for `Cc1ccc([C@H](CC(=O)O)c2ccn3c(C(F)(F)F)nnc3c2C)cc1CN1CC2(CC2)Oc2nc(N(C)CCO)ccc2S1(=O)=O` (single isomer, unassigned) [Example 110, (*S)-3-(-3-((7′-((3-Hydroxyethyl)(methyl)amino)-1′,1′-dioxidospiro[cyclopropane-1,4′-pyrido[2,3-b][1,4,5]oxathiazepin]-2′(3′H)-yl)methyl)-4-methylphenyl)-3-(8-methyl-3-(trifluoromethyl)-[1,2,4[triazolo[4,3-a]pyridine-7-yl)propanoic Acid] reads 0.485 µM.
`Cc1ccc([C@H](CC(=O)O)c2ccn3c(C(F)(F)F)nnc3c2C)cc1CN1CC2(CCOCC2)Oc2ncc(F)cc2S1(=O)=O` (single isomer, unassigned) [Example 414, (*S)-3-(3-((8′-fluoro-1′,1′-dioxido-2,3,5,6-tetrahydrospiro[pyran-4,4′-pyrido[2,3-b][1,4,5]oxathiazepin]-2′(3′H)-yl)methyl)-4-methylphenyl)-3-(8-methyl-3-(trifluoromethyl)-[1,2,4]triazolo[4,3-a]pyridin-7-yl)propanoic Acid] gave an EC50 of 0.011 µM.
The result for `Cc1cnc([C@H](c2ccn3c(C(F)F)nnc3c2C)C(C)(C)C(=O)O)cc1CN1CC2(CC2)Oc2nc(OCCN3CCCCC3)c(C)cc2S1(=O)=O` (single isomer, unassigned) [Example 637, (*R)-3-(3-(Difluoromethyl)-8-methyl-[1,2,4]triazolo[4,3-a]pyridin-7-yl)-2,2-dimethyl-3-(5-methyl-4-((8′-methyl-1′,1′-dioxido-7′-(2-(piperidin-1-yl)ethoxy)spiro[cyclopropane-1,4′-pyrido[2,3-b][1,4,5]oxathiazepin]-2′(3′H)-yl)methyl)pyridin-2-yl)propanoic Acid] reads 0.615 µM; that for `Cc1ccc([C@H](CC(=O)O)c2ccn3c(C(F)F)nnc3c2C)cc1CN1C[C@H]2CCCCN2c2ncc(C#N)cc2S1(=O)=O` (relative stereo) [Example 32, (*S)-3-(3-(((*R)-3-Cyano-5,5-dioxido-7,7a,8,9,10,11-hexahydro-6H-dipyrido[2,1-d:2′,3′-f][1,2,5]thiadiazepin-6-yl)methyl)-4-methylphenyl)-3-(3-(difluoromethyl)-8-methyl-[1,2,4]triazolo[4,3-a]pyridin-7-yl)propanoic Acid], 0.0136 µM.
The result for `Cc1ccc([C@H](CC(=O)O)c2ccc3c(nnn3C3CC3)c2C)cc1CN1CC2(CC2)N(C)c2ncccc2S1(=O)=O` (single isomer, unassigned) [Example 225, (*S)-3-(1-Cyclopropyl-4-methyl-1H-benzo[d][1,2,3]triazol-5-yl)-3-(4-methyl-3-((5′-methyl-1′,1′-dioxido-5′H-spiro[cyclopropane-1,4′-pyrido[2,3-f][1,2,5]thiadiazepin]-2′(3′H)-yl)methyl)phenyl)propanoic Acid] reads 0.005 µM; that for `Cc1ccc([C@H](CC(=O)O)c2ccn3c(C(F)(F)F)nnc3c2C)cc1CN1CC2(CC2)Oc2ccc(F)cc2S1(=O)=O` (single isomer, unassigned) [Example 98, (*S)-3-(3-((8-Fluoro-1,1-dioxidospiro[benzo[b][1,4,5]oxathiazepin]-4,1′-cyclopropan]-2(3H)-yl)methyl)-4-methylphenyl)-3-(8-methyl-3-(trifluoromethyl)-[1,2,4]triazolo[4,3-a]pyridin-7-yl)propanoic Acid], 0.016 µM; that for `CCn1nnc2c(C)c([C@H](c3ccc(C)c(CN4CC5(CCOCC5)Oc5ncc(C)cc5S4(=O)=O)c3)C(C)(C)C(=O)O)ccc21` (single isomer, unassigned) [Example 421, (*R)-3-(1-ethyl-4-methyl-1H-benzo[d][1,2,3]triazol-5-yl)-2,2-dimethyl-3-(4-methyl-3-((8′-methyl-1′,1′-dioxido-2,3,5,6-tetrahydrospiro[pyran-4,4′-pyrido[2,3-b][1,4,5]oxathiazepin]-2′(3′H)-yl)methyl)phenyl)propanoic Acid], 0.00024 µM.
Then `Cc1ccc([C@H](CC(=O)O)c2ccc3c(nnn3CC3CC3)c2C)cc1CN1C[C@]2(C)CCCN2c2ncccc2S1(=O)=O` (relative stereo) [Example 12, (*S)-3-(1-(Cyclopropylmethyl)-4-methyl-1H-benzo[d][1,2,3]triazol-5-yl)-3-(4-methyl-3-(((*S)-7a-methyl-5,5-dioxido-7a,8,9,10-tetrahydropyrido[2,3-f]pyrrolo[2,1-d][1,2,5]thiadiazepin-6(7H)-yl)methyl)phenyl)propanoic Acid], with 0.0027 µM; and `CCn1nnc2c(C)c(C(CC(=O)O)c3ccc(C)c(CN4C[C@H]5CCCN5c5ccccc5S4(=O)=O)c3)ccc21` (mixture of isomers) [Example 152, (R/S)-3-(3-(((R)-5,5-Dioxido-7a,8,9,10-tetrahydrobenzo[f]pyrrolo[2,1-d][1,2,5]thiadiazepin-6(7H)-yl)methyl)-4-methylphenyl)-3-(1-ethyl-4-methyl-1H-benzo[d][1,2,3]triazol-5-yl)propanoic Acid], with 0.0065 µM.

These data come from patent US10947252B2, “Inhibitors of KEAP1-Nrf2 protein-protein interaction” (Janssen Pharmaceutica NV, priority 2018, dated 2021).
